Experimental data reported in ChEMBL document CHEMBL5150017, “Mechanism of Action and Structure-Activity Relationship of α-Conotoxin Mr1.1 at the Human α9α10 Nicotinic Acetylcholine Receptor” (J Med Chem, 2022).

Tests used:
[1] = target: Neuronal acetylcholine receptor; alpha9/alpha10 (Homo sapiens, UniProt Q9GZZ6+Q9UGM1); assay: Antagonist activity at human alpha9alpha10 nAChR expressed in Xenopus laevis oocytes assessed as inhibition of ACh-induced current amplitude at -80 mV holding potential by two-electrode voltage clamp method; type: cell-based, Oocyte
[2] = target: T1, Neuronal acetylcholine receptor; alpha9/alpha10 (Homo sapiens) (UniProt Q9UGM1+Q9GZZ6); assay: Antagonist activity at human alpha9alpha10 nAChR expressed in Xenopus laevis oocytes assessed as inhibition of ACh-induced current amplitude at -80 mV holding potential at 1 uM by two-electrode voltage clamp method; type: cell-based; conditions: Oocyte
[3] = target: T1, Neuronal acetylcholine receptor; alpha9/alpha10 (Homo sapiens); assay: Antagonist activity at human alpha9alpha10 nAChR expressed in Xenopus laevis oocytes assessed as inhibition of ACh-induced current amplitude at -80 mV holding potential at 10 uM by two-electrode voltage clamp method; type: cell-based; conditions: Oocyte

Chain of Neuronal acetylcholine receptor; alpha9/alpha10 (Q9UGM1 whole entry): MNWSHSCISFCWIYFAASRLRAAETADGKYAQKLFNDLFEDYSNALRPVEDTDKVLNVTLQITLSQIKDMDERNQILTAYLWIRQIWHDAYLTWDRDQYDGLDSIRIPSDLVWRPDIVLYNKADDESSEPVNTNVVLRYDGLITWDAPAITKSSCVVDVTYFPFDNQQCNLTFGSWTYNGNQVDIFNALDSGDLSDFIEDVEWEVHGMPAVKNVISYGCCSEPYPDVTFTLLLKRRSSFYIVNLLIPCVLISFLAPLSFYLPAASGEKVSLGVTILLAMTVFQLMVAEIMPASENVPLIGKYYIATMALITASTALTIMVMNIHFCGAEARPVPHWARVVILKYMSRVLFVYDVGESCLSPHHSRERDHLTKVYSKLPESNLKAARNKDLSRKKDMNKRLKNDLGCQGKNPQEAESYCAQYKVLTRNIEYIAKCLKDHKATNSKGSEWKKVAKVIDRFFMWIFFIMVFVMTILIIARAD
Chain of Neuronal acetylcholine receptor; alpha9/alpha10 (Q9GZZ6 whole entry): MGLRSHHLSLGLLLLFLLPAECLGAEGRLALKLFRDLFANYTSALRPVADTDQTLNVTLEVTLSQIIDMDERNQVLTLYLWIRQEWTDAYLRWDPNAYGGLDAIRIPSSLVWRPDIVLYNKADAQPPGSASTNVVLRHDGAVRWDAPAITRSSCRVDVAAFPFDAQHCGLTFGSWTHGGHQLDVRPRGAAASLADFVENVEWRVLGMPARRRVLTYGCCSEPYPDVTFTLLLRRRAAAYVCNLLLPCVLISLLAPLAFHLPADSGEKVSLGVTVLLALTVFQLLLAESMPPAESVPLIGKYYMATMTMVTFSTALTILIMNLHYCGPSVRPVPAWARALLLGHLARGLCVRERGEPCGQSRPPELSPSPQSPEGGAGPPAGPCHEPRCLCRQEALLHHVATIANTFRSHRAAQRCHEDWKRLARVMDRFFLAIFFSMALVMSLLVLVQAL

SMILES: N=C(N)NCCC[C@H](NC(=O)[C@H](CS)NC(=O)[C@H](CCCNC(=N)N)NC(=O)[C@H](Cc1ccc(O)cc1)NC(=O)[C@H](CCCNC(=N)N)NC(=O)[C@H](CS)NC(=O)[C@H](CCCNC(=N)N)NC(=O)[C@@H]1CCCN1C(=O)[C@H](CC(=O)O)NC(=O)[C@H](CO)NC(=O)[C@H](CS)NC(=O)[C@H](CS)NC(=O)CN)C(=O)O
- IC50 [1]: 0.5 µM

SMILES: CC[C@H](C)[C@@H]1NC(=O)[C@H](CCC(=O)O)NC(=O)[C@@H]2CCCN2C(=O)[C@H](Cc2cnc[nH]2)NC(=O)[C@H](CC(=O)O)NC(=O)[C@H](Cc2ccc(O)cc2)NC(=O)[C@H](CC(N)=O)NC(=O)[C@@H]2CSSC[C@H](NC(=O)CN)C(=O)N[C@@H](CSSC[C@@H](C(N)=O)NC1=O)C(=O)N[C@@H](CO)C(=O)N[C@@H](CC(=O)O)C(=O)N1CCC[C@H]1C(=O)N[C@@H](CCCNC(=N)N)C(=O)N2
- inhibition [2]: 20%
- inhibition [3]: 0%
